{"source": "patent US10919896B2", "about": "“Preparation and uses of pyrimidinone derivatives” (Cancer Research Technology Limited, priority 2016, dated 2021)", "key": {"[1]": {"test_system": "Cdc7 (pS40MCM2 levels in HCT116 cells)", "experiment": "Cdc7 Cell Pharmacodynamics Assay Method 2B: pS40MCM2 levels in HCT116 cells, 18 hours", "assay_type": "cell-based", "conditions": "Homo sapiens, HCT-116, read-out: Biomarker Method 2B (pEC50) (converted)", "how_it_was_run": "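HCT116 cells seeded at 20,000/well, settled overnight, then treated with compound (1:400 dilution from compound plate) for 6 h (Method 2A) or 18 h (Method 2B) at 37° C. Lysates captured on total-MCM2 antibody plates; pS40 MCM2 detected with rabbit anti-pMCM2 Ser40, HRP secondary and chemiluminescent substrate.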"}, "Cdc7/ASK": {"biological_target": "Cdc7/ASK (Homo sapiens, UniProt O00311)", "sequence (O00311 whole entry)": "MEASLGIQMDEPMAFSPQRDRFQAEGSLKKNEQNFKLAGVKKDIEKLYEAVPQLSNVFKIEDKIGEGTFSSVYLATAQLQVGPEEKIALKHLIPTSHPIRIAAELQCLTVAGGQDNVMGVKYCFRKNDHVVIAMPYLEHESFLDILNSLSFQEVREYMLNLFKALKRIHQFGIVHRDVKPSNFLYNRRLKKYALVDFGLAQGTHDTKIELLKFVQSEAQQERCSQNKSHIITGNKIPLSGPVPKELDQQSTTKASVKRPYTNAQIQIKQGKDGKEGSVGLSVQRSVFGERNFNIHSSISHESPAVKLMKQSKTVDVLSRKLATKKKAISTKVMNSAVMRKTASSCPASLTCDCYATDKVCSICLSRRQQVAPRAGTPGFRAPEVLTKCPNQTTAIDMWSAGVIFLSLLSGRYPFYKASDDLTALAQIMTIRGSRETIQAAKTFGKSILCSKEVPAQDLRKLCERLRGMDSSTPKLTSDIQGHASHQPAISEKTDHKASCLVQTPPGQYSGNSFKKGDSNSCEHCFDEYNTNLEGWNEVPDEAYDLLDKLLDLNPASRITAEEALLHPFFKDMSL", "sequence (Q9UBU7 whole entry partner)": "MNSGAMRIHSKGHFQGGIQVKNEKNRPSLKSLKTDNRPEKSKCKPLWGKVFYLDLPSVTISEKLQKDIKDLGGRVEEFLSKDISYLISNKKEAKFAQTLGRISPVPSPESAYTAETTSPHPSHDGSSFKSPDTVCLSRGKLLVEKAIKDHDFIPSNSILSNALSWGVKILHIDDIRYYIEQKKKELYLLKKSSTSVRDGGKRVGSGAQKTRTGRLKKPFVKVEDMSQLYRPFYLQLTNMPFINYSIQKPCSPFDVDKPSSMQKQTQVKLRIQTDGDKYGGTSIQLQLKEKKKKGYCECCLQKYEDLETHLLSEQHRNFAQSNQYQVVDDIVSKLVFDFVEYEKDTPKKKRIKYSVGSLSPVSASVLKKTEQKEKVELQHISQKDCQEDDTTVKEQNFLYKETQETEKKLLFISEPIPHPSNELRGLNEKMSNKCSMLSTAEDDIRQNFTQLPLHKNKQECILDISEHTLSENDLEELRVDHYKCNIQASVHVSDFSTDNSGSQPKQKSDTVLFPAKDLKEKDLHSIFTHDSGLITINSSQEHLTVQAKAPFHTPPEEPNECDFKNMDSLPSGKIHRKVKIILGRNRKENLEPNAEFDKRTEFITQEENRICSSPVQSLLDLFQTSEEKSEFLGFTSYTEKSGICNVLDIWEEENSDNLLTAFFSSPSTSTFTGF", "experiment": "Cdc7 Biochemical Assay Method 4: off-chip mobility shift assay (Carna Biosciences)", "parameters": "purchased Carna Biosciences; host or cells: baculovirus expression system", "conditions": "off-chip MSA, MCM2 peptide, 5 hours; read-out: Biochemical Method 4 (pIC50) (converted)", "method": "This protocol describes a method for assaying Cdc7/ASK for activity. The assay is an off-chip mobility shift assay (MSA) run at Carna Biosciences.\n1. Preparation of Test Compound Solution.\nThe test compound was dissolved in and diluted with dimethylsulfoxide (DMSO) to achieve 100-fold higher concentration which was specified by the sponsor. Then the solution was further 25-fold diluted with assay buffer to make the final test compound solution. Reference compounds for assay control were prepared similarly.\nCdc7/ASK: Full-length human Cdc7 [1-574(end) amino acids of accession number NP_003494.1] was co-expressed as N-terminal GST-fusion protein (92 kDa) with Dbf4(ASK) [1-674(end) amino acids of accession number NP_006707.1] using baculovirus expression system. GST-Cdc7 was purified by using glutathione sepharose chromatography.\n3. Assay Reagents and Procedures\nOff-chip Mobility Shift Assay (MSA)\n1) The […] of ×2 kinase solution were prepared with assay buffer (20 mM HEPES, 0.01% Triton X-100, 1 mM DTT, pH 7.5) and mixed and incubated in a well of polypropylene 384 well microplate for 5 hours at room temperature. 2) […] of Termination Buffer (QuickScout Screening Assist MSA; Carna Biosciences) was added to the well. 3) The reaction mixture was applied to LabChip system (Perkin Elmer), and the product and substrate peptide peaks were separated and quantitated. 4) The kinase reaction was evaluated by the product ratio calculated from peak heights of product (P) and substrate (S) peptides (P/(P+S)).\nReaction time is 5 hours.\nThe readout value of reaction control (complete reaction mixture) was set as a 0% inhibition, and the readout value of background (Enzyme(−)) was set as a 100% inhibition, then the percent inhibition of each test solution was calculated.\nIC50 value was calculated from concentration vs. % Inhibition curves by fitting to a four parameter logistic curve."}}, "note": "Where a name gives a salt, the structure may show the parent alone.", "data": [{"smiles": "O=c1[nH]c(-c2ccnc(F)c2)nc(N2CCCC(F)(F)C2)c1Cl", "note": "[Compound 90, 5-chloro-4-(3,3-difluoro-1-piperidyl)-2-(2-fluoro-4-pyridyl)-1H-pyrimidin-6-one]", "values": [{"measurement": "EC50", "setting": "[1]", "value": 13.5, "unit": "nM"}]}, {"smiles": "O=c1[nH]c(-c2ccnc(F)c2)nc(N2CCNCC(F)(F)C2)c1Cl", "note": "[Compound 312, 5-chloro-4-(6,6-difluoro-1,4-diazepan-1-yl)-2-(2-fluoro-4-pyridyl)-1H-pyrimidin-6-one hydrochloride]", "values": [{"measurement": "EC50", "setting": "[1]", "value": 7.59, "unit": "nM"}, {"measurement": "IC50", "setting": "Cdc7/ASK", "value": 3.72, "unit": "nM"}]}, {"smiles": "C[C@@H]1CNCCN1c1nc(-c2ccnc(F)c2)[nH]c(=O)c1Cl", "note": "[Compound 323]", "values": [{"measurement": "EC50", "setting": "[1]", "value": 5.62, "unit": "nM"}, {"measurement": "IC50", "setting": "Cdc7/ASK", "value": 3.09, "unit": "nM"}]}]}
